Where a name gives a salt, the structure may show the parent alone. Read-outs that look alike come from different tables or passages of the source. Residues, ends and D or L forms follow the SMILES beside them. *: point of attachment. Cbz = O=C(OCc1ccccc1)*
Test system: Ebola virus
Assay: microbe, parasite or virus in culture
Assay type: cell-based, Ebolavirus (EBOV)
Conditions: for Emax: read-out: Max Effect

SMILES | IC50 (Zaire ebolavirus, Vero) [µM] | Emax (Zaire ebolavirus, Vero) [%] | further results
O=[N+]([O-])c1ccccc1OCCCCCOc1ccccc1[N+](=O)[O-] [1,5′-Bis(2-Nitrophenoxy)pentane] |  |  | Max Effect: 0.531; IC50 (read-out: IC50): 13 µM
COc1cc(C=C2CCCC(=Cc3ccc(O)c(OC)c3)C2=O)ccc1O [2,6-Divanillylidenecyclohexanone] | 6.4 | 93.2 | 
CCCC[C@H]1C(=O)O[C@H](C)[C@H](NC(=O)c2cccc(NC=O)c2OC)C(=O)O[C@@H](C)[C@@H]1OC(=O)CC(C)C [2-Methoxy-antimycin A3] |  |  | Max Effect: 0.791; IC50 (read-out: IC50): 1.2 µM
Nc1ncnc2c1c(I)cn2[C@@H]1O[C@H](CO)[C@@H](O)[C@H]1O [5-Iodotubercidin] |  |  | Max Effect: 0.369
N[C@H]1CC[C@@H](c2ccc(Cl)c(Cl)c2)c2ccccc21 [(1S,4S)-Desmethyl Sertraline, Hydrochloride] | 1.3 | 68.8 | 
COc1cc(C[C@H]2C(=O)OC[C@@H]2Cc2ccc(OC)c(OC)c2)ccc1O [(−)-Arctigenin] |  |  | Max Effect: 0.411
O=c1cnn([C@@H]2O[C@H](CO)[C@@H](O)[C@H]2O)c(=O)[nH]1 [Agent 6-Azauridine, 6-Azauridine] | < 1 | 80 | 
CCN(CCCc1ccccc1)CCCc1ccccc1 [Alverine Citrate] |  | 49.5 | 
CCOC(=O)C1=C(COCCN)NC(C)=C(C(=O)OC)C1c1ccccc1Cl (centres unmarked) [Amlodipine Besylate] | 13.2 | 52.8 | 
COc1ccc(C[C@H]2NC[C@H](O)[C@H]2OC(C)=O)cc1 [Anisomycin] |  |  | Max Effect: 0.900; IC50 (read-out: IC50): < 1.6 µM
CCOC(=O)c1c(CSc2ccccc2)n(C)c2cc(Br)c(O)c(CN(C)C)c12 [Arbidol] | 6 | 59.2 | 
CC(=O)OC[C@H]1O[C@@H]([S-])[C@H](OC(C)=O)[C@@H](OC(C)=O)[C@@H]1OC(C)=O.CCP(CC)CC.[Au+] [Auranofin] |  |  | IC50 (read-out: IC50): < 1 µM
CN1CCCC(n2nc(Cc3ccc(Cl)cc3)c3ccccc3c2=O)CC1 (centres unmarked) [Azelastine] | 122 | 64.8 | 
CO/C1=C\C(C)=C\[C@@H](C)[C@@H](O)[C@@H](C)C/C(C)=C/C=C/[C@H](OC)[C@@H]([C@@H](C)[C@@H](O)[C@H](C)[C@@]2(O)C[C@@H](O)[C@H](C)[C@@H](C(C)C)O2)OC1=O [Bafilomycin A1] |  |  | Max Effect: 0.880; IC50 (read-out: IC50): 0.019 µM
Nc1nc(-c2nn(Cc3ccccc3F)c3ncccc23)ncc1C1CC1 [Bay 41-2272] |  |  | Max Effect: 0.900; IC50 (read-out: IC50): < 0.5 µM
CC(O)(CS(=O)(=O)c1ccc(F)cc1)C(=O)Nc1ccc(C#N)c(C(F)(F)F)c1 (centres unmarked) [Bicalutamide] |  | 46.4 | 
C[C@H]1CCC/C=C/[C@@H]2C[C@H](O)C[C@H]2[C@H](O)/C=C/C(=O)O1 [Brefeldin A] |  |  | Max Effect: 0.900; IC50 (read-out: IC50): < 1.6 µM
CC(C)C[C@H]1C(=O)N2CCC[C@H]2[C@]2(O)O[C@](NC(=O)[C@@H]3C=C4c5cccc6[nH]c(Br)c(c56)C[C@H]4N(C)C3)(C(C)C)C(=O)N12 [Bromocriptine Mesylate] |  | 42.2 | 
O=C(/C=C/c1ccc(O)c(O)c1)OCCc1ccccc1 [CAPE] |  |  | Max Effect: 0.368
Nc1nc2ccc(Cl)cc2c2nc(-c3ccco3)nn12 [CGS 15943] |  | 44.9 | 
NCCNS(=O)(=O)c1ccc(Cl)c2ccncc12 [CKI7] |  |  | Max Effect: 0.565; IC50 (read-out: IC50): 10.7 µM

SMILES | IC50 (Zaire ebolavirus, Vero) [µM] | Emax (Zaire ebolavirus, Vero) [%] | further results
CNc1ccc2oc(C[C@H]3O[C@@]4(CC[C@H]3C)O[C@H]([C@H](C)C(=O)c3ccc[nH]3)[C@H](C)C[C@H]4C)nc2c1C(=O)O [Calcimycin A23187] |  |  | Max Effect: 0.789; IC50 (read-out: IC50): 1.1 µM
CC(C)[C@H](NC(=O)OCc1ccccc1)C(=O)N[C@H](C=O)Cc1ccccc1 [Carbobenzoxy-valinyl-phenylalaninal] (Cbz-Val-Phe-aldehyde) | 2.9 | 60.7 | 
N#CC(C#N)=NNc1ccc(OC(F)(F)F)cc1 [Carbonyl cyanide 4-(trifluoromethoxy)phenylhydrazone] | 4.5 | 75.2 | 
CC(=O)OCC1=C(C(=O)O)N2C(=O)[C@@H](NC(=O)CSc3ccncc3)[C@H]2SC1 [Cephapirin Sodium] | 9.8 | 66.2 | 
COc1ccc2cc1Oc1ccc(cc1)C[C@H]1c3c(cc4c(c3Oc3cc5c(cc3OC)CCN(C)[C@@H]5C2)OCO4)CCN1C [Cepharanthine] | 5.6 | 65.2 | 
COCc1c(C(C)C)nc(C(C)C)c(/C=C/[C@@H](O)C[C@@H](O)CC(=O)O)c1-c1ccc(F)cc1 [Cerivastatin Sodium] | 0.1 | 44.3 | 
CN1CCN(C(c2ccccc2)c2ccc(Cl)cc2)CC1 (centres unmarked) [Chlorcyclizine Hydrochloride] |  | 45.6 | 
CC(=O)O.CC(=O)O.NC(=N\CCCCCC/N=C(N)/N=C(\N)Nc1ccc(Cl)cc1)/N=C(\N)Nc1ccc(Cl)cc1 [Chlorhexidine Diacetate] |  |  | Max Effect: 0.543; IC50 (read-out: IC50): 6.1 µM
CN(C)CCOC(C)(c1ccccc1)c1ccc(Cl)cc1 (centres unmarked) [Chlorphenoxamine Hydrochloride] | 5 | 78.9 | 
CO[C@@H]1[C@H](O)C[C@@H](O[C@@H]2C[C@H](Oc3cc4cc5c(c(O)c4c(O)c3C)C(=O)[C@@H](O[C@H]3C[C@@H](O[C@H]4C[C@@H](O[C@H]6C[C@](C)(O)[C@@H](OC(C)=O)[C@H](C)O6)[C@H](O)[C@@H](C)O4)[C@H](O)[C@@H](C)O3)[C@H]([C@H](OC)C(=O)[C@@H](O)[C@@H](C)O)C5)O[C@H](C)[C@@H]2OC(C)=O)O[C@@H]1C [Chromomycin A3] |  |  | Max Effect: 0.629; IC50 (read-out: IC50): 0.4 µM
CC(C)C(=O)OCC(=O)[C@@]12O[C@H](C3CCCCC3)O[C@@H]1C[C@H]1[C@@H]3CCC4=CC(=O)C=C[C@]4(C)[C@H]3[C@@H](O)C[C@@]12C [Ciclesonide] | 16 | 51.2 | 
Cc1cc(C2CCCCC2)n(O)c(=O)c1 [Ciclopirox Olamine] |  | 43.1 | 
CC1(C)C[C@@H]1C(=O)N/C(=C\CCCCSC[C@H](N)C(=O)O)C(=O)O [Cilastatin Sodium] | 8.8 | 91.2 | 
C[C@@H]1C[C@@H]([C@H](O)CC2CC(=O)NC(=O)C2)C(=O)[C@@H](C)C1 [Cycloheximide] | < 1.6 | 90 | 
CN1CCC(=C2c3ccccc3C=Cc3ccccc32)CC1 [Cyproheptadine Hydrochloride] |  | 49.3 | 
C#C[C@]1(O)CC[C@H]2[C@@H]3CCC4=Cc5oncc5C[C@]4(C)[C@H]3CC[C@@]21C [Danazol] | 12.9 | 54.6 | 
COc1cc2c(cc1OC)[C@@H]1C(=O)c3ccc4c(c3O[C@@H]1CO2)C=CC(C)(C)O4 [Deguelin] | 0.5 | 41.8 | 
CC/C(=C(/CC)c1ccc(O)cc1)c1ccc(O)cc1 [Diethylstilbestrol] |  | 43.6 | 
c1ccc2c(c1)[I+]c1ccccc1-2 [Diphenyleneiodonium chloride] | < 1.6 | 80 | 
CCCCCCCCCCCC[N+](C)(C)CCOc1ccccc1 [Domiphen Bromide] | 7.5 | 71.5 | 
CN(C)CCOC(C)(c1ccccc1)c1ccccn1 (centres unmarked) [Doxylamine Succinate] | 5.2 | 73.1 | 

SMILES | IC50 (Zaire ebolavirus, Vero) [µM] | Emax (Zaire ebolavirus, Vero) [%] | further results
CCOc1ccc(/C=C2\NCCc3cc(OCC)c(OCC)cc32)cc1OCC [Drotaverine Hydrochloride] |  | 36.7 | 
O=C([O-])CN(CCN(CC(=O)[O-])CC(=O)[O-])CC(=O)[O-].[Ca+2].[Na+].[Na+] [Edetate Calcium Disodium] | 6.6 | 84.1 | 
CC[C@H]1CN2CCc3cc(OC)c(OC)cc3[C@@H]2C[C@@H]1C[C@H]1NCCc2cc(OC)c(OC)cc21 [Emetine dihydrochloride hydrate] | 0.3 | 89.3 | 
CC[C@H](C)[C@H](NC(=O)[C@H]([C@@H](C)CC)N(C)C(C)=O)C(=O)N[C@H](C(=O)N[C@@H](CC(C)C)C(=O)[C@@]1(C)CO1)[C@@H](C)O [Epoxomicin] |  |  | Max Effect: 0.466
C[C@]12CC[C@H]3C(=CCc4cc(O)ccc43)[C@@H]1CCC2=O [Equilin] |  | 42.4 | 
COc1ccc(-c2nc(C(=O)N3CCN(C)CC3)sc2-c2ccc(OC)cc2)cc1 [FR122047] |  |  | Max Effect: 0.688; IC50 (read-out: IC50): 3.7 µM
COC(=O)Nc1nc2ccc(Sc3ccccc3)cc2[nH]1 [Fenbendazole] | 5.8 | 50 | 
CC(C(=O)[O-])c1cccc(Oc2ccccc2)c1.CC(C(=O)[O-])c1cccc(Oc2ccccc2)c1.[Ca+2] (centres unmarked) [Fenoprofen Calcium] |  |  | Max Effect: 0.454
CC1=C(/C=C/C(C)=C/C=C/C(C)=C/C(=O)Nc2ccc(O)cc2)C(C)(C)CCC1 [Fenretinide] |  | 42.6 | 
Nc1[nH]c(=O)ncc1F [Flucytosine] | 4.4 | 79.3 | 
Fc1ccc(C(c2ccc(F)cc2)N2CCN(C/C=C/c3ccccc3)CC2)cc1 [Flunarizine Hydrochloride] |  | 40.2 | 
Clc1cc(Cl)c(OCC#CI)cc1Cl [Haloprogin] | 2.9 | 58.8 | 
Oc1c(Cl)cc(Cl)c(Cl)c1Cc1c(O)c(Cl)cc(Cl)c1Cl [Hexachlorophene] | 3.2 | 71.3 | 
CN1CCCN(C(c2ccccc2)c2ccc(Cl)cc2)CC1 (centres unmarked) [Homochlorcyclizine dihydrochloride] | 8.7 | 50.8 | 
CCCCCC(=O)O[C@]1(C(C)=O)CC[C@H]2[C@@H]3CCC4=CC(=O)CC[C@]4(C)[C@H]3CC[C@@]21C [Hydroxyprogesterone Caproate] | 3.7 | 71.9 | 
O=C(Nc1cc(C(F)(F)F)cc(C(F)(F)F)c1)c1cc(Cl)ccc1O [IMD-0354] | 3.1 | 66.1 | 
NC(=O)C[C@H](N)C(=O)O [L-Asparagine] | 7.2 | 77.1 | 
C/C1=C/C(=O)O[C@@H]2C[C@@H](CC[C@H](C)/C=C\CC1)O[C@@](O)([C@@H]1CSC(=O)N1)C2 [Latrunculin B] |  |  | Max Effect: 0.621; IC50 (read-out: IC50): 0.4 µM
CC(=O)N[C@@H](CC(C)C)C(=O)N[C@@H](CC(C)C)C(=O)N[C@H](C=O)CCCNC(=N)N [Leupeptin HCl] | 3.2 | 86.5 | 
C=CC(C)(C)c1cc(/C=C/C(=O)c2ccc(O)cc2)c(OC)cc1O [Licochalcone-A] |  |  | Max Effect: 0.522; IC50 (read-out: IC50): 4.7 µM
CN(C)C(=O)C(CCN1CCC(O)(c2ccc(Cl)cc2)CC1)(c1ccccc1)c1ccccc1 [Loperamide Hydrochloride] |  |  | Max Effect (Hydrochloride): 0.418

Source: US8475804B2 (priority 2009, dated 2013)
